Assays:
Assay in all cases: In vitro antimicrobial activity, agar dilution MIC
Format in all cases: cell-based
[1] = tested on: Acinetobacter baumannii; details: test organism 26, Acinetobacter baumannii
Procedure: (§1) The activity of the compounds of the present invention was evaluated using an in vitro assay. Microorganisms were prepared from growth on agar media, in broth culture, or from thawed cryopreserved cultures. Fungal cultures were filtered to remove mycelial elements.
(§2) Using Mueller Hinton II Broth, 0.9% saline or other appropriate media, a suspension of each culture was prepared and adjusted to a turbidity equivalent to that of a 0.5 McFarland Standard. (Cultures adjusted to the 0.5 McFarland Standard generally contain approximately 1.0×10^8 CFU/mL). The adjusted suspension for each culture was diluted 1:10 in the appropriate media so that the inoculum concentration approximates 1.0×10^7 CFU/mL.
(§3) The antimicrobial agent to be tested was weighed and diluted with a volume of sterile distilled water calculated to yield the necessary starting concentration. Serial 1:2 dilutions of the antimicrobial agent in sterile distilled water were prepared (approximately 10-12 test concentrations comprise a reasonable experimental range). A known amount of each antimicrobial dilution was combined with an aliquot of agar medium calculated to yield the desired final antimicrobial test concentration and dispensed onto plates.
(§4) The amount of antimicrobial agent to be weighed was determined using the following equation: […]
(§5) Antimicrobial stock solutions were prepared at concentrations 5-10 times the highest concentration to be tested (routinely 1024 μg/mL). […] The stock solution was diluted to appropriate concentration using sterile water to form a working solution. The working solution was diluted two-fold, in sterile water, until the desired concentration is obtained.
(§6) Mueller Hinton II agar was prepared as described by the manufacturer. Mueller Hinton II agar may be supplemented with 5% defibrinated sheep blood for testing streptococci. Agar was added to the serially diluted antimicrobial solution in each container. The solutions were mixed thoroughly and poured into petri dishes (about 25 mL/plate). The pH of the agar at 25° C. should be between 7.2 and 7.4.
(§7) At least one inocula control plate was inoculated (agar medium without antimicrobial agent) from each seed plate before inoculating test plates. Test plates were inoculated starting at the lowest concentration and proceeding to the highest concentration. After all test plates were inoculated, an additional control plate (agar medium without antimicrobial agent) was inoculated. The plates were incubated in a non-CO2 incubator (or CO2 incubator depending on growth requirements); 18-24 hours at 32-35° C. was sufficient for most organisms.
(§8) All inoculation points on the agar surface were examined for the presence of growth as compared to the inoculum control plates. The results were summarized and use to determine Minimal Inhibitory Concentrations (MICs): The MIC is the lowest concentration of the antimicrobial agent which prevents visible growth of the organism (negative score).

[2] = tested on: Acinetobacter junii
Procedure: as §1, §2, §3, §4, §5, §6, §7, §8

[3] = tested on: Corynebacterium amycolatum
Procedure: as §1, §2, §3, §4, §5, §6, §7, §8

[4] = tested on: Enterobacter hormaechei
Procedure: as §1, §2, §3, §4, §5, §6, §7, §8

[5] = tested on: Enterococcus faecalis
Procedure: as §1, §2, §3, §4, §5, §6, §7, §8

[6] = tested on: Escherichia coli
Procedure: as §1, §2, §3, §4, §5, §6, §7, §8

[7] = tested on: MRSA
Procedure: as §1, §2, §3, §4, §5, §6, §7, §8

[8] = tested on: MRSE
Procedure: as §1, §2, §3, §4, §5, §6, §7, §8

[9] = tested on: MSSA; details: test organism 6, MSSA
Procedure: as §1, §2, §3, §4, §5, §6, §7, §8

[10] = tested on: Morganella morganii
Procedure: as §1, §2, §3, §4, §5, §6, §7, §8

[11] = tested on: Pseudomonas aeruginosa
Procedure: as §1, §2, §3, §4, §5, §6, §7, §8

[12] = tested on: Serratia marcescens
Procedure: as §1, §2, §3, §4, §5, §6, §7, §8

[13] = tested on: Staphylococcus aureus
Procedure: as §1, §2, §3, §4, §5, §6, §7, §8

[14] = tested on: Staphylococcus epidermidis
Procedure: as §1, §2, §3, §4, §5, §6, §7, §8

[15] = tested on: Staphylococcus haemolyticus
Procedure: as §1, §2, §3, §4, §5, §6, §7, §8

[16] = tested on: Stenotrophomonas maltophilia
Procedure: as §1, §2, §3, §4, §5, §6, §7, §8

[17] = tested on: Streptococcus mitis
Procedure: as §1, §2, §3, §4, §5, §6, §7, §8

[18] = tested on: Streptococcus pneumoniae
Procedure: as §1, §2, §3, §4, §5, §6, §7, §8

[19] = test organism 27, Acinetobacter junii
[20] = test organism 28, Acinetobacter junii
[21] = test organism 29, Acinetobacter junii
[22] = test organism 24, Corynebacterium amycolatum
[23] = test organism 25, Corynebacterium amycolatum
[24] = test organism 31, Enterobacter hormaechei
[25] = test organism 15, Enterococcus faecalis
[26] = test organism 16, Enterococcus faecalis
[27] = test organism 17, Enterococcus faecalis
[28] = test organism 18, Enterococcus faecalis
[29] = test organism 32, Escherichia coli
[30] = test organism 33, Escherichia coli
[31] = test organism 34, Escherichia coli
[32] = test organism 35, Morganella morganii
[33] = test organism 36, Morganella morganii
[34] = test organism 37, Pseudomonas aeruginosa
[35] = test organism 38, Pseudomonas aeruginosa
[36] = test organism 39, Serratia marcescens
[37] = test organism 40, Serratia marcescens
[38] = test organism 1, Staphylococcus aureus
[39] = test organism 2, Staphylococcus aureus
[40] = test organism 7, Staphylococcus epidermidis
[41] = test organism 8, Staphylococcus epidermidis
[42] = test organism 12, Staphylococcus haemolyticus
[43] = test organism 13, Staphylococcus haemolyticus
[44] = test organism 14, Staphylococcus haemolyticus
[45] = test organism 41, Stenotrophomonas maltophilia
[46] = test organism 42, Stenotrophomonas maltophilia
[47] = test organism 21, Streptococcus mitis
[48] = test organism 22, Streptococcus mitis
[49] = test organism 23, Streptococcus mitis
[50] = test organism 19, Streptococcus pneumoniae
[51] = test organism 20, Streptococcus pneumoniae

Measured: Minimal Inhibitory Concentration (MIC)

Nc1c(F)c(N2CC3CCCNC3C2)c(F)c2c1c(=O)c(C(=O)O)cn2C1CC1 (racemic) [Compound 3 (racemic)]
0.06: [3]; [22] | [6]; [29] | [14]; [40] | [17]; [48]
0.125: [2]; [20] | [5]; [25] | [15]; [42]
>2: [5]; [28] | [7]; test organism 3, MRSA | [7]; test organism 5, MRSA | [8]; test organism 9, MRSE | [8]; test organism 10, MRSE | [14]; [41]
≦0.25: [2]; [19] | [6]; [30]
0.5: [1] | [4]; test organism 30, Enterobacter hormaechei | [10]; [32] | [12]; [36] | [13]; [39] | [17]; [47] | [18]; [51]
2: [7]; test organism 4, MRSA | [11]; [35]
>4: [2]; [21] | [3]; [23] | [5]; [27] | [6]; [31] | [8]; test organism 11, MRSE | [9] | [11]; [34] | [15]; [44]
4: [4]; [24] | [16]; [45]
1: [5]; [26] | [10]; [33] | [12]; [37] | [15]; [43] | [17]; [49]
≦0.03: [13]; [38] | [16]; [46] | [18]; [50]

CN1CCCC2CN(c3c(F)cc4c(=O)c(C(=O)O)cn(C5CC5)c4c3F)CC21 (centres unmarked) [Compound 1]
2: [2]; [21] | [10]; [33] | [11]; [35] | [15]; [43] | [17]; [49]
0.06: [3]; [22] | [6]; [29] | [13]; [38]
≦0.25: [2]; [19] | [6]; [30] | [13]; [39]
4: [4]; [24] | [7]; test organism 4, MRSA
0.5: [1] | [5]; [25] | [10]; [32] | [17]; [47] | [18]; [51]
0.25: [14]; [40] | [15]; [42] | [16]; [46] | [17]; [48]
0.125: [18]; [50]
1: [12]; [36] | [12]; [37]
>2: [5]; [26] | [5]; [28] | [7]; test organism 3, MRSA | [7]; test organism 5, MRSA | [8]; test organism 9, MRSE | [8]; test organism 10, MRSE | [14]; [41]
≦0.03: [2]; [20]
>4: [3]; [23] | [5]; [27] | [6]; [31] | [8]; test organism 11, MRSE | [9] | [11]; [34] | [15]; [44] | [16]; [45]
